One may read the IC50 as the concentration that inhibits the measured activity by half. Low readings indicate greater potency, high ones weaker potency.

In the assay the target is TRPV1 (Rattus norvegicus, UniProt O35433). As to the kind of experiment: two-electrode voltage clamp in Xenopus oocytes injected with rat TRPV1 cRNA; inhibition of […] capsaicin current. The assay is classed as cell-based. (Two-electrode voltage clamp is typically applied to oocytes expressing channels or transporters.)
Sequence of TRPV1 (O35433 whole entry): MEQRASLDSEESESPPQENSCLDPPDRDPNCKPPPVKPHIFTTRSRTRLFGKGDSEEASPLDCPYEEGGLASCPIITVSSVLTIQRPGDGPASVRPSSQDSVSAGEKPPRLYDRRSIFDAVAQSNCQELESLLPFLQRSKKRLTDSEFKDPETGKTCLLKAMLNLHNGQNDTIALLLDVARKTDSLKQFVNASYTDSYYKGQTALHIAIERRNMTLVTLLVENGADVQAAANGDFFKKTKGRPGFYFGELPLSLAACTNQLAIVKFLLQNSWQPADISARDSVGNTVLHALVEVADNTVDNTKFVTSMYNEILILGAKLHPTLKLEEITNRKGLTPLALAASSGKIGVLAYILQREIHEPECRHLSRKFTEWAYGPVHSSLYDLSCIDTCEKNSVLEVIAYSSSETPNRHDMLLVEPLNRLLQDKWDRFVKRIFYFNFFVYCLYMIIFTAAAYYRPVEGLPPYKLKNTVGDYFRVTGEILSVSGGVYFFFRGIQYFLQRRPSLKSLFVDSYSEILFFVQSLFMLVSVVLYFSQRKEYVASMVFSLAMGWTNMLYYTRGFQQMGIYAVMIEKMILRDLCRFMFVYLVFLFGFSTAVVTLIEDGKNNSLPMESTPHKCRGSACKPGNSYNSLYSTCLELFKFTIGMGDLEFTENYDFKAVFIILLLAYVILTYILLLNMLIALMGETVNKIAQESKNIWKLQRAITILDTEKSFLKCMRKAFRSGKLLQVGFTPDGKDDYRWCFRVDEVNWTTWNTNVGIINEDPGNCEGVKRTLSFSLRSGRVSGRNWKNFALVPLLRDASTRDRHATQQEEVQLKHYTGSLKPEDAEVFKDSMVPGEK

Consider LASSBio-1135, for which half-maximal inhibition (IC50) required 580 nM.

The values above are taken from paper PMC4062389, “LASSBio-1135: A Dual TRPV1 Antagonist and Anti-TNF-Alpha Compound Orally Effective in Models of Inflammatory and Neuropathic Pain” (PLoS ONE, 2014).
